Reference: a melting point compilation (Tetko et al.; mined from patent text by program, amines drawn as free bases though some values may be those of a salt)

| melting point [°C] | SMILES |
| --- | --- |
| 192 to 193 | O=C1c2cc(Cl)ccc2N(N2CCCCC2)C2=NCCN12 |
| 148 to 150 | O=S(=O)(c1ccc(Cl)cc1)C(c1cc(F)ccc1F)c1cc(NCCc2ccncc2)ncc1Cl (stereo not given) |
| 220 to 222 | Oc1ccc2[nH]cc(CCCCN3CCN(c4ccc5c(c4)CCCO5)CC3)c2c1 |
| 127 to 130 | O=C1Nc2cc(Cl)ccc2C1(Br)Br |
| 124 to 125 | CNC(=O)N(O)C(C)c1ccc(C(F)(F)F)cc1 (stereo not given) |
| 126 to 128 | CC(CO)NC(=O)c1ccc(CN(C2CCCCC2F)S(=O)(=O)c2ccc(Cl)cc2)c(F)c1F (stereo not given) |
| 90 to 92 | COc1cc(C(=O)N(C(C)C)C(C)C)ccc1OCCCCCOc1ccc(C#N)cc1 |
| 168 to 169 | CC1CC2(C)C(CCC3C4CCC(C5(C)OCCO5)C4(C)CC(=O)C32)CC1=O (stereo not given) |
| 148 to 149 | NC1=NN(c2ccc(OCc3ccccc3)cc2)CC1 |
| 41 to 43 | CCOC(=O)CC(=O)Sc1cc(Cl)c(Cl)cc1Cl |
| 111 to 113 | CCOC(=O)c1ccc(NS(C)(=O)=O)c(Oc2ccc(F)cc2F)c1 |
| 170 | Cc1nc2n(c(=O)c1CCN1CCN(c3noc4c(C)cccc34)CC1)CCCS2 |
| 105 to 106 | C[C@H]1Oc2ccc(Br)cc2C(=O)N2CCCC[C@@H]12 (racemic) |
| 71.1 | CC(Br)c1ccc(C(=O)c2cccs2)cc1 (stereo not given) |
| 92.5 to 94.5 | CCN(CC)CCOc1ccn2nc(-c3ccccc3)c(-c3ccc(=O)n(C(C)C)n3)c2c1 |
| 118 to 121 | c1cc(-n2cnnn2)ccc1SCN1CCOCC1 |
| 127 | CCN(CC)C(=O)c1nc(-c2ccccc2)nc2ccccc12 |
| 204 to 206 | Nc1ccc(S(=O)(=O)Nc2ccc(Cl)c3cc[nH]c23)cn1 |
| 232 | CCOC(c1ccc(C=NO)cc1)(c1ccc2[nH]c(=O)cc(-c3cccc(Cl)c3)c2c1)c1cncn1C (stereo not given) |
| 148 | Cc1cc(C)nc(OC(C(=O)O)c2ccccc2)n1 (stereo not given) |
| 182 to 186 | CC(=O)SCC(Cc1ccccc1)C(=O)Nc1cc(C)cc(C(=O)O)c1C (stereo not given) |
| 88 to 89 | COc1cc(O)ccc1CCCc1ccc(O)cc1 |
| 225 to 226 | CS(=O)(=O)c1ccc(-n2cnc3ccc(-c4nnc(CCc5cccc(C#N)c5)o4)cc32)cc1 |
| 160 to 164 | N#Cc1ccc2cc(O)ccc2c1 |
| 89 to 91 | Nc1ccccc1Nc1ccc(C(=NO)c2ccccc2)cc1 |

| melting point [°C] | SMILES |
| --- | --- |
| 259 | CN(C)Cc1ccccc1-c1ccc(N2CCc3c(C(F)(F)F)nn(-c4cccc(C(N)=O)c4)c3C2=O)cc1 |
| 115 to 118 | CCC(CC)c1ccc(Cl)c2nc(Nc3ccc(C)cc3Br)n(CCCCO)c12 |
| 147 to 148 | Cc1ccc(-c2ccc(S(N)(=O)=O)cc2)n1-c1ccc(F)cc1 |
| 143 to 144 | Cc1c(O)ccc(Cl)c1N |
| 56 to 57 | Cc1ccc(Cn2ccc3cc(Br)ccc32)cc1 |
| 59.5 to 61 | CNC(=C[N+](=O)[O-])NCCCOc1cccc(CCCN(C)C)c1 |
| 149 to 150 | COC(=O)CCn1c(=O)n(CCN2CCN(c3ccccc3C)CC2)c(=O)c2cscc21 |
| 115 | COc1cc(C(=O)c2ccc(C(F)(F)F)cc2)cc([N+](=O)[O-])c1OC |
| 339 to 342 | O=C(c1c[nH]c(=O)[nH]1)c1cccs1 |
| 96 to 98 | COC(=O)c1c(Cl)cc(Cl)cc1NC(=O)CSc1ccc(NCc2ccc(Cl)cc2)cc1 |
| 158 to 162 | COc1ccc(S(=O)(=O)n2cc(F)c(N)nc2=O)cc1 |
| 164 to 166 | CC1(C)SCc2ccccc2C1N=CNC#N (stereo not given) |
| 235 | O=C(Nc1nc(C(F)(F)F)co1)C1c2ccccc2Oc2ccc(Cl)cc21 (racemic) |
| 152 to 153 | CCCC(OC(=O)c1ccncc1)C(=O)O (racemic) |
| 110 | COc1ccc(S(=O)(=O)N2Cc3ccsc3C[C@@H]2C(=O)O)cc1 |
| 136 to 139 | CN(C)CCCN(C)C(=O)Nc1ccc(-c2nnc(CSCCOc3ccccc3)o2)cc1 |
| 211 to 213 | Cc1[nH]c(=O)n(-c2cc(C(=O)OC(C)C)c(Cl)cc2F)c(=O)c1I |
| 128 | CN(C)c1nc(NCc2ccc(NC(=O)c3ccc(F)cc3)cc2)c2ccc(-c3ccccc3C=O)cc2n1 |
| 176 to 178 | O=C(Cc1ccccc1Cl)N1CCCc2ncc3ccccc3c21 |
| 92 to 93 | COc1cc(OC)c2c(=O)[nH]c(-c3ccc(OCCO)c(-c4ccccc4S(C)(=O)=O)n3)nc2c1 |
| 133 to 134 | CSc1ccc(C(=O)C=Cc2ccncc2)cc1 |
| 98 to 100 | CC(=O)N1CC(CCN2CCC(c3ccc(C(F)(F)F)cc3)CC2)c2ccccc21 (stereo not given) |
| 65 | CCCN(Cc1ccc(C(=O)NC2Cc3ccccc3C2)cc1)C1CCc2ncsc2C1 (stereo not given) |
| 185 | CN1CCC(=Cc2cc(C(C)(C)C)c(O)c(C(C)(C)C)c2)C1=O |
| 212 to 214 | CN(C)C(=O)N[C@H]1CC[C@H](CCN2CCN(c3cccc(Cl)c3Cl)CC2)CC1 |
